Paper PMC5443783, “Prostaglandin E2 glyceryl ester is an endogenous agonist of the nucleotide receptor P2Y6” (Scientific Reports, 2017)

Key:
Assay in all cases: PathHunter β-Arrestin orphan GPCR panel
Type in all cases: cell-based
Conditions in all cases: agonist mode, 0.001 µM
GPR148 = molecular target: T1, GPR148 (Homo sapiens, UniProt Q8TDV2)
T1 construct: purchased DiscoveRx (PathHunter β-Arrestin orphan GPCR panel)
From the text: (§1) For screening orphan GPCRs as possible targets for PGE2-G, the PathHunter® β-Arrestin assay (DiscoveRx Co., USA) was used. It monitors the activation of a GPCR by utilizing an enzyme fragment complementation assay with β-galactosidase as the functional reporter. Briefly, the enzyme is split into two complementary portions expressed as fusion proteins in the cell. The enzyme acceptor is fused to β2-arrestin, and the ProLink donor peptide is fused to the GPCR of interest. Upon GPCR stimulation, β2-arrestin is recruited to the receptor, bringing the two fragments of β-galactosidase together. This generates an active enzyme that can convert a chemiluminescent substrate, generating a signal detectable on a standard microplate reader (see manufacturer’s instructions). In total, 78 GPCRs, previously considered orphan and individually transfected into cells, were screened by DiscoveRx (Supplementary Table S1). The percentage activity given in the results is calculated using the following formula: % activity = 100% × (mean RLU of test sample - mean RLU of vehicle control)/mean RLU of vehicle control).

EBI2 = molecular target: T2, EBI2 (Homo sapiens, UniProt P32249)
T2 construct: purchased DiscoveRx (PathHunter β-Arrestin orphan GPCR panel)
From the text: as §1

GPR30 = molecular target: T3, GPR30 (Homo sapiens, UniProt Q99527)
T3 construct: purchased DiscoveRx (PathHunter β-Arrestin orphan GPCR panel)
T3 sequence (Q99527 whole entry): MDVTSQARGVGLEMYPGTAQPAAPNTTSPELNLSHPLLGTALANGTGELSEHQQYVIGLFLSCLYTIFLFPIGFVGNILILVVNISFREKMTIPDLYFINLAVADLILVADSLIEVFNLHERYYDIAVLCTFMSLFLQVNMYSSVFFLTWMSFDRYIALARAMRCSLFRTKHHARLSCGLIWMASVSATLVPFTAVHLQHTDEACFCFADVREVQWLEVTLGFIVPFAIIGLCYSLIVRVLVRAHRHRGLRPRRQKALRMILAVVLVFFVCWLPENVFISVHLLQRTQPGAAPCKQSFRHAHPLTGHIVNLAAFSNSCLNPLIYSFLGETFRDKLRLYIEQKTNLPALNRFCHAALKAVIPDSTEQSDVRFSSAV
From the text: as §1

GPR20 = molecular target: T4, GPR20 (Homo sapiens, UniProt Q99678)
T4 construct: purchased DiscoveRx (PathHunter β-Arrestin orphan GPCR panel)
From the text: as §1

GPR32 = molecular target: T5, GPR32 (Homo sapiens, UniProt O75388)
T5 construct: purchased DiscoveRx (PathHunter β-Arrestin orphan GPCR panel)
T5 sequence (O75388 whole entry): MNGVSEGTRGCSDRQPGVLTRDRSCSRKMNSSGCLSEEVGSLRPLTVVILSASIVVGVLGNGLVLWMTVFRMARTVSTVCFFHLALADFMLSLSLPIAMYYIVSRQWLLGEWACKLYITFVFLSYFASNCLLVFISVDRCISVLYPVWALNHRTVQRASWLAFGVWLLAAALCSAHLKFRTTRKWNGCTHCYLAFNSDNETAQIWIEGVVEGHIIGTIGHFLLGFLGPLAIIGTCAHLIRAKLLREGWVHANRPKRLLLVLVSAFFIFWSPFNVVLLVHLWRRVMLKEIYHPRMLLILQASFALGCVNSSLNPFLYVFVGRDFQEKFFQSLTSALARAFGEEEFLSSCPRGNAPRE
From the text: as §1

GPR123 = molecular target: T6, GPR123 (Homo sapiens, UniProt Q86SQ6)
T6 construct: purchased DiscoveRx (PathHunter β-Arrestin orphan GPCR panel)
From the text: as §1

GPR139 = molecular target: T7, GPR139 (Homo sapiens, UniProt Q6DWJ6)
T7 construct: purchased DiscoveRx (PathHunter β-Arrestin orphan GPCR panel)
T7 sequence (Q6DWJ6 whole entry): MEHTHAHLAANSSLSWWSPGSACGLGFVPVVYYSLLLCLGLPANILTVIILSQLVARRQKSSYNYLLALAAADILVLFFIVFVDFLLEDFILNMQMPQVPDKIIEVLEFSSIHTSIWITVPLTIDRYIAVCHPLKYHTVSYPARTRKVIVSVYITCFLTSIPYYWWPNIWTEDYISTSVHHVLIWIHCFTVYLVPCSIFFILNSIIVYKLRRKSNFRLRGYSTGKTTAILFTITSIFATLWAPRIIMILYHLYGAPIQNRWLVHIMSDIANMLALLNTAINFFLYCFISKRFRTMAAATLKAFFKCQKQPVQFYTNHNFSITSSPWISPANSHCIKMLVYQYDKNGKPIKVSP
From the text: as §1

GPR101 = molecular target: T8, GPR101 (Homo sapiens, UniProt Q96P66)
T8 construct: purchased DiscoveRx (PathHunter β-Arrestin orphan GPCR panel)
From the text: as §1

GPR103 = molecular target: T9, GPR103 (Homo sapiens, UniProt Q96P65)
T9 construct: purchased DiscoveRx (PathHunter β-Arrestin orphan GPCR panel)
From the text: as §1

GPR23 = molecular target: T10, GPR23 (Homo sapiens, UniProt Q99677)
T10 construct: purchased DiscoveRx (PathHunter β-Arrestin orphan GPCR panel)
From the text: as §1

GPR151 = molecular target: T11, GPR151 (Homo sapiens, UniProt Q8TDV0)
T11 construct: purchased DiscoveRx (PathHunter β-Arrestin orphan GPCR panel)
From the text: as §1

GPR142 = molecular target: T12, GPR142 (Homo sapiens, UniProt Q7Z601)
T12 construct: purchased DiscoveRx (PathHunter β-Arrestin orphan GPCR panel)
From the text: as §1

GPR31 = molecular target: T13, GPR31 (Homo sapiens, UniProt O00270)
T13 construct: purchased DiscoveRx (PathHunter β-Arrestin orphan GPCR panel)
From the text: as §1

GPR173 = molecular target: T14, GPR173 (Homo sapiens, UniProt Q9NS66)
T14 construct: purchased DiscoveRx (PathHunter β-Arrestin orphan GPCR panel)
From the text: as §1

GPR146 = molecular target: T15, GPR146 (Homo sapiens, UniProt Q96CH1)
T15 construct: purchased DiscoveRx (PathHunter β-Arrestin orphan GPCR panel)
T15 sequence (Q96CH1 whole entry): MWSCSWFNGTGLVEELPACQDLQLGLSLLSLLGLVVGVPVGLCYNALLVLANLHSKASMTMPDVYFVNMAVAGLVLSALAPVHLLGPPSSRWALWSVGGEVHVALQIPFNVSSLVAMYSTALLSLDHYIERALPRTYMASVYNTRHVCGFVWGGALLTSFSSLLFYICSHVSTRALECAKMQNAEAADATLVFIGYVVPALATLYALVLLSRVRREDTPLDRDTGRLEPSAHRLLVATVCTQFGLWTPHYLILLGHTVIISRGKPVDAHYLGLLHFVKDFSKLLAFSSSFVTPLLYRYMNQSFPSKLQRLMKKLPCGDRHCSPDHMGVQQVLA
From the text: as §1

ADMR = molecular target: T16, ADMR (Homo sapiens, UniProt O15218)
T16 construct: purchased DiscoveRx (PathHunter β-Arrestin orphan GPCR panel)
From the text: as §1

GPR182 = molecular target: T17, GPR182 (Homo sapiens, UniProt O15218)
T17 construct: purchased DiscoveRx (PathHunter β-Arrestin orphan GPCR panel)
From the text: as §1

GPR37L1 = molecular target: T18, GPR37L1 (Homo sapiens, UniProt O60883)
T18 construct: purchased DiscoveRx (PathHunter β-Arrestin orphan GPCR panel)
From the text: as §1

GPR161 = molecular target: T19, GPR161 (Homo sapiens, UniProt Q8N6U8)
T19 construct: purchased DiscoveRx (PathHunter β-Arrestin orphan GPCR panel)
From the text: as §1

GPR152 = molecular target: T20, GPR152 (Homo sapiens, UniProt Q8TDT2)
T20 construct: purchased DiscoveRx (PathHunter β-Arrestin orphan GPCR panel)
From the text: as §1

GPR143 = molecular target: T21, GPR143 (Homo sapiens, UniProt P51810)
T21 construct: purchased DiscoveRx (PathHunter β-Arrestin orphan GPCR panel)
From the text: as §1

GPR107 = molecular target: T22, GPR107 (Homo sapiens, UniProt Q5VW38)
T22 construct: purchased DiscoveRx (PathHunter β-Arrestin orphan GPCR panel)
From the text: as §1

GPR25 = molecular target: T23, GPR25 (Homo sapiens, UniProt O00155)
T23 construct: purchased DiscoveRx (PathHunter β-Arrestin orphan GPCR panel)
From the text: as §1

GPR27 = molecular target: T24, GPR27 (Homo sapiens, UniProt Q9NS67)
T24 construct: purchased DiscoveRx (PathHunter β-Arrestin orphan GPCR panel)
From the text: as §1

GPR141 = molecular target: T25, GPR141 (Homo sapiens, UniProt Q7Z602)
T25 construct: purchased DiscoveRx (PathHunter β-Arrestin orphan GPCR panel)
From the text: as §1

BAI3 = molecular target: T26, BAI3 (Homo sapiens, UniProt O60242)
T26 construct: purchased DiscoveRx (PathHunter β-Arrestin orphan GPCR panel)
T26 sequence (O60242 25-1522): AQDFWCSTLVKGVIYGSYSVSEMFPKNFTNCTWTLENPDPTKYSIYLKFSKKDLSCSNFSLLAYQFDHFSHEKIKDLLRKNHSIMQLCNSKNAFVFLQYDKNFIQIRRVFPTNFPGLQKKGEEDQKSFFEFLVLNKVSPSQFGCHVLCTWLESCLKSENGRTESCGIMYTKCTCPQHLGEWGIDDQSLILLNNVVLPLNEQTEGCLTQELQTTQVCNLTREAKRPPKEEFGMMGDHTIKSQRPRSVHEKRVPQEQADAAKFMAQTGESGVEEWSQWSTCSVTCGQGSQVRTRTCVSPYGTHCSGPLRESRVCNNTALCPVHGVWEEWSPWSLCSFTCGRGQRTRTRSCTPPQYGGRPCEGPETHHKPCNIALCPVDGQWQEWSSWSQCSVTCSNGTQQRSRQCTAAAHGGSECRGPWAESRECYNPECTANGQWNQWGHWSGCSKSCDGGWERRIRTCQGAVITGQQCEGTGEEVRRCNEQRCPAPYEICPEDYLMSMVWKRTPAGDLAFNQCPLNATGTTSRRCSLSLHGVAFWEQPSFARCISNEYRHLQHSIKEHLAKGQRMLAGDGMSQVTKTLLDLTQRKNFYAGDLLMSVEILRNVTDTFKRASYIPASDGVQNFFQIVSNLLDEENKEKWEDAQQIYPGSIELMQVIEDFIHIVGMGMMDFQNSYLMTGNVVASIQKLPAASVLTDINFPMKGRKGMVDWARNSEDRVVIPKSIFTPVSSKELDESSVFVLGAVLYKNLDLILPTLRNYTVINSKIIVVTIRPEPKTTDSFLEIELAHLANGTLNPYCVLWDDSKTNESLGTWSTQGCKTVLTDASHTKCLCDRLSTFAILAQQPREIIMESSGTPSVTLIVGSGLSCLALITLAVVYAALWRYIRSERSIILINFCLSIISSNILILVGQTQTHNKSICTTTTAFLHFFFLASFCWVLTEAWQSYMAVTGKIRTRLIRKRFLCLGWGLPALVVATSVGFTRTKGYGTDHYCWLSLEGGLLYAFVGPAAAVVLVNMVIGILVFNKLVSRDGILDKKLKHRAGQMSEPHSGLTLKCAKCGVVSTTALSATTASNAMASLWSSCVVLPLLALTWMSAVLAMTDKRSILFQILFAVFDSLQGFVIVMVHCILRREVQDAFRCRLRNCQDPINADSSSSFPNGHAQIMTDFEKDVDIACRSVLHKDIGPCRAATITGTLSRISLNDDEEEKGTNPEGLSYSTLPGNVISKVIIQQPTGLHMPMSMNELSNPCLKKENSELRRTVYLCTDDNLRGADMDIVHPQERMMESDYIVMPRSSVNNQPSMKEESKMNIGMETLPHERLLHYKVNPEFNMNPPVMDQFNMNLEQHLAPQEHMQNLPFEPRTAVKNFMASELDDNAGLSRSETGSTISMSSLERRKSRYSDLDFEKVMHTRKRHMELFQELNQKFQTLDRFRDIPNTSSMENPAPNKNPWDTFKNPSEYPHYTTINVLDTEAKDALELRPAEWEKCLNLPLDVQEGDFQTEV
From the text: as §1

GPR171 = molecular target: T27, GPR171 (Homo sapiens, UniProt O14626)
T27 construct: purchased DiscoveRx (PathHunter β-Arrestin orphan GPCR panel)
From the text: as §1

GPR176 = molecular target: T28, GPR176 (Homo sapiens, UniProt Q14439)
T28 construct: purchased DiscoveRx (PathHunter β-Arrestin orphan GPCR panel)
From the text: as §1

GPR26 = molecular target: T29, GPR26 (Homo sapiens, UniProt Q8NDV2)
T29 construct: purchased DiscoveRx (PathHunter β-Arrestin orphan GPCR panel)
From the text: as §1

DARC = molecular target: T30, DARC (Homo sapiens, UniProt Q16570)
T30 construct: purchased DiscoveRx (PathHunter β-Arrestin orphan GPCR panel)
From the text: as §1

BAI2 = molecular target: T31, BAI2 (Homo sapiens, UniProt O60241)
T31 construct: purchased DiscoveRx (PathHunter β-Arrestin orphan GPCR panel)
T31 sequence (O60241 33-1585): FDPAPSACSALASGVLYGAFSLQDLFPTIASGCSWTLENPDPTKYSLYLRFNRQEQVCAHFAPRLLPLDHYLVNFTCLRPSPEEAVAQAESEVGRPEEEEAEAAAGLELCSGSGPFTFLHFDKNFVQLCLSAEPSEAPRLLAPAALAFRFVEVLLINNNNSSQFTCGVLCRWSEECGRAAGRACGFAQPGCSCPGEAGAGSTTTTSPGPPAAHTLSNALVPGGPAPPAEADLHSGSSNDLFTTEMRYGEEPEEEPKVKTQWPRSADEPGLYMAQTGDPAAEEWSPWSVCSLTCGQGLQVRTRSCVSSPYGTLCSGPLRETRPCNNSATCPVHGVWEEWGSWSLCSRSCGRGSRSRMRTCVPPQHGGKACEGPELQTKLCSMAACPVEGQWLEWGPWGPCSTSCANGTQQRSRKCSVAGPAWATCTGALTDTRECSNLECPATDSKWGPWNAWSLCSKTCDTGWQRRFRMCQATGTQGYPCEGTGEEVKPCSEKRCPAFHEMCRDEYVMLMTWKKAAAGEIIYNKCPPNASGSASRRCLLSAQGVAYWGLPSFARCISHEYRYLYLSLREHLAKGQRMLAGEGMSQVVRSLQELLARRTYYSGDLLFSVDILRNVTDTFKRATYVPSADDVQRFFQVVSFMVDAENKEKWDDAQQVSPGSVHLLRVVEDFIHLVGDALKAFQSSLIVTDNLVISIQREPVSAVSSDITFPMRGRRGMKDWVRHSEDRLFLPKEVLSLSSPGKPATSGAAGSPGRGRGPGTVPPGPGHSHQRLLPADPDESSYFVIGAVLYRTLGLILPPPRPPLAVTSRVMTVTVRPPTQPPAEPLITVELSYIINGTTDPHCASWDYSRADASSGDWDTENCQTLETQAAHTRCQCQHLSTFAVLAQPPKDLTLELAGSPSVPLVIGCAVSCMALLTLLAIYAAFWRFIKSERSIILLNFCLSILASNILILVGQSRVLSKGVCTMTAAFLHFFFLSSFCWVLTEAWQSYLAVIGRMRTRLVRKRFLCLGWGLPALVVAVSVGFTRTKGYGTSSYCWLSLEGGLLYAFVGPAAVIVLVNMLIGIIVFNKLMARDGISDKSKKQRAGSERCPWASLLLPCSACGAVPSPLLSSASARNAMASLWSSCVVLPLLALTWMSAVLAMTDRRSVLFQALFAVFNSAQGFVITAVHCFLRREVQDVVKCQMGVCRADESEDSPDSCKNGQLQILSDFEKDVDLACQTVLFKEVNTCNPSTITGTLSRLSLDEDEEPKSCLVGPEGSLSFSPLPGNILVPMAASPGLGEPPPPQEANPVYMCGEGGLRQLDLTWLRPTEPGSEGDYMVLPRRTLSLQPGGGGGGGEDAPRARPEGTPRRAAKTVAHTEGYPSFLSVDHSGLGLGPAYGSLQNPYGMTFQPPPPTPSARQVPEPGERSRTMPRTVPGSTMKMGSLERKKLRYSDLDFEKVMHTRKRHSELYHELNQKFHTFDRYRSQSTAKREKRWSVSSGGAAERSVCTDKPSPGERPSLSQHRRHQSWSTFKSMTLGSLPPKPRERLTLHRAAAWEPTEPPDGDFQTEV
From the text: as §1

CMKLR2 = molecular target: T32, CMKLR2 (Homo sapiens, UniProt P46091)
T32 construct: purchased DiscoveRx (PathHunter β-Arrestin orphan GPCR panel)
From the text: as §1

GPR157 = molecular target: T33, GPR157 (Homo sapiens, UniProt Q5UAW9)
T33 construct: purchased DiscoveRx (PathHunter β-Arrestin orphan GPCR panel)
From the text: as §1

GPR135 = molecular target: T34, GPR135 (Homo sapiens, UniProt Q8IZ08)
T34 construct: purchased DiscoveRx (PathHunter β-Arrestin orphan GPCR panel)
From the text: as §1

GHSR1B = molecular target: T35, GHSR1B (Homo sapiens, UniProt Q92847)
T35 construct: purchased DiscoveRx (PathHunter β-Arrestin orphan GPCR panel)
From the text: as §1

GPR132 = molecular target: T36, GPR132 (Homo sapiens, UniProt Q9UNW8)
T36 construct: purchased DiscoveRx (PathHunter β-Arrestin orphan GPCR panel)
From the text: as §1

CCRL2 = molecular target: T37, CCRL2 (Homo sapiens, UniProt O00421)
T37 construct: purchased DiscoveRx (PathHunter β-Arrestin orphan GPCR panel)
From the text: as §1

GPR3 = molecular target: T38, GPR3 (Homo sapiens, UniProt P46089)
T38 construct: purchased DiscoveRx (PathHunter β-Arrestin orphan GPCR panel)
From the text: as §1

GPR18 = molecular target: T39, GPR18 (Homo sapiens, UniProt Q14330)
T39 construct: purchased DiscoveRx (PathHunter β-Arrestin orphan GPCR panel)
From the text: as §1

GPR162 = molecular target: T40, GPR162 (Homo sapiens, UniProt Q16538)
T40 construct: purchased DiscoveRx (PathHunter β-Arrestin orphan GPCR panel)
From the text: as §1

GPR37 = molecular target: T41, GPR37 (Homo sapiens, UniProt O15354)
T41 construct: purchased DiscoveRx (PathHunter β-Arrestin orphan GPCR panel)
From the text: as §1

GPR15 = molecular target: T42, GPR15 (Homo sapiens, UniProt P49685)
T42 construct: purchased DiscoveRx (PathHunter β-Arrestin orphan GPCR panel)
From the text: as §1

GPR12 = molecular target: T43, GPR12 (Homo sapiens, UniProt P47775)
T43 construct: purchased DiscoveRx (PathHunter β-Arrestin orphan GPCR panel)
From the text: as §1

GPR17 = molecular target: T44, GPR17 (Homo sapiens, UniProt Q13304)
T44 construct: purchased DiscoveRx (PathHunter β-Arrestin orphan GPCR panel)
T44 sequence (Q13304 whole entry): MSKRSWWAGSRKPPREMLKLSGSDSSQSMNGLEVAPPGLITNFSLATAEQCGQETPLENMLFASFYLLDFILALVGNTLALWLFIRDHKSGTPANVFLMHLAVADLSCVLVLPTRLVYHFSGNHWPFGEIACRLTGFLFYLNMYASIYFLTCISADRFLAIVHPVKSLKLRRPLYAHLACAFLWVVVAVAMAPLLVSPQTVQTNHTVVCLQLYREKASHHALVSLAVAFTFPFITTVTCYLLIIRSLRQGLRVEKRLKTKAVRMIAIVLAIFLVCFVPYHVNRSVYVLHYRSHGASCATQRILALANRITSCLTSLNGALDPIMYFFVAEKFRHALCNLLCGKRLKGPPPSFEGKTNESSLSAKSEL
From the text: as §1

BAI1 = molecular target: T45, BAI1 (Homo sapiens, UniProt O14514)
T45 construct: purchased DiscoveRx (PathHunter β-Arrestin orphan GPCR panel)
From the text: as §1

GPR150 = molecular target: T46, GPR150 (Homo sapiens, UniProt Q8NGU9)
T46 construct: purchased DiscoveRx (PathHunter β-Arrestin orphan GPCR panel)
From the text: as §1

GPR149 = molecular target: T47, GPR149 (Homo sapiens, UniProt Q86SP6)
T47 construct: purchased DiscoveRx (PathHunter β-Arrestin orphan GPCR panel)
From the text: as §1

CCCCC[C@H](O)/C=C/[C@H]1[C@H](O)CC(=O)[C@@H]1C/C=C\CCCC(=O)NC(CO)CO [PGE2-SA]
Mean RLU (GPR148): 3640 RLU | Mean RLU (EBI2): 46540 RLU | Mean RLU (GPR30): 8540 RLU | Mean RLU (GPR20): 74500 RLU | Mean RLU (GPR32): 129240 RLU | Mean RLU (GPR123): 1221720 RLU | Mean RLU (GPR139): 307380 RLU | Mean RLU (GPR101): 30940 RLU | Mean RLU (GPR103): 56020 RLU | Mean RLU (GPR23): 990600 RLU | Mean RLU (GPR151): 57420 RLU | Mean RLU (GPR142): 2660 RLU | Mean RLU (GPR31): 7680 RLU | Mean RLU (GPR173): 62220 RLU | Mean RLU (GPR146): 15800 RLU | Mean RLU (ADMR): 514420 RLU | Mean RLU (GPR182): 899260 RLU | Mean RLU (GPR37L1): 36440 RLU | Mean RLU (GPR161): 20300 RLU | Mean RLU (GPR152): 178980 RLU | Mean RLU (GPR143): 91680 RLU | Mean RLU (GPR107): 304860 RLU | Mean RLU (GPR25): 6140 RLU | Mean RLU (GPR27): 219760 RLU | Mean RLU (GPR141): 30420 RLU | Mean RLU (BAI3): 21960 RLU | Mean RLU (GPR171): 4880 RLU | Mean RLU (GPR176): 380580 RLU | Mean RLU (GPR26): 2200 RLU | Mean RLU (DARC): 105120 RLU | Mean RLU (BAI2): 15400 RLU | Mean RLU (CMKLR2): 17240 RLU | Mean RLU (GPR157): 356620 RLU | Mean RLU (GPR135): 16680 RLU | Mean RLU (GHSR1B): 2580 RLU | Mean RLU (GPR132): 620480 RLU | Mean RLU (CCRL2): 8400 RLU | Mean RLU (GPR3): 1524920 RLU | Mean RLU (GPR18): 520 RLU | Mean RLU (GPR162): 26360 RLU | Mean RLU (GPR37): 822100 RLU | Mean RLU (GPR15): 9440 RLU | Mean RLU (GPR12): 680 RLU | Mean RLU (GPR17): 805440 RLU | Mean RLU (BAI1): 864280 RLU | Mean RLU (GPR150): 31360 RLU | Mean RLU (GPR149): 29340 RLU
